Values of other authors in patent US12036548B2, “Organs-on-chips as a platform for epigenetics discovery” (EMULATE, INC., priority 2018, dated 2024).

Conditions: normal nutritional iodine supply

II [iodine]
fraction taken up and stored by a normally functioning thyroid gland: 15-30%
